Test results taken from EP1233748B1, “RETINALDEHYDE COMBINATION WITH ANTIFUNGAL ACTIVITY” (Pierre Fabre Dermo-Cosmetique, priority 1999, dated 2001).

Assays:
Type in all cases: cell-based
[1] = test system: Malassézia furfur IP 1363-82; Malassezia furfur sauvage; test: Combination study, checkerboard method on microplate, CMF in association and FIC Index; conditions: for CMF % Associés: product in association (Rétinal + Ald. C11), checkerboard, 32°C
Description: (§1) *souche : Malassézia furfur IP 1363-82 Malassezia furfur sauvage collecté auprès d'un pityriasis versicolor chez un patient hospitalisé au Centre Hospitalier Régional de Toulouse Rangueil (France). *milieu de culture : Dixon modifié (sous forme de bouillon et sous forme gélosée par ajout d'agar) *appareillage : microplaques stériles Nunc ® Nunclon à 96 puits eau distillée stérile tubes à essais stériles étuve à 32°C spectrophotomètre et cuves adaptées billes de verre stériles *produits : les solutions-mères des produits cités ci-dessous ont été préparés comme suit : • Trans rétinal :solution à 1% dans 20% d'éthanol 95 complétée avec de l'eau distillée stérile. • undécanal :solution à 1% dans 10% de Tween 80 complétée par de l'eau distillée stérile.
Des solutions-mères comme décrites précédemment égales à deux fois la CMF sont réalisées. La méthode de l'échiquier rapportée sur microplaque est utilisée pour croiser les séries de dilution au demi de chaque actif. Après ensemencement et incubation à 32°C, on procède à la lecture des CMF. Un repérage des CMF donnant lieu à des synergies peut alors se faire. Nous obtenons après calcul des FIC Index le tableau suivant :
La synergie peut être mise en évidence par le calcul des Index FIC (Fractional Inhibitory Concentration) des produits. Pour cela, on mesure la valeur de la CMF (ou Concentration Minimale Fongistatique) des principes actifs à tester vis-à-vis d'un type de germe.
Le FIC d'un produit A est défini comme : FICA =(CMF du produit A en association)/(CMF du produit A seul) [formula]
L'association de deux antifongiques A et B est synergique si la somme FIC des rapports (FICA et FICB) est inférieure ou égale à 0,75.
Plus la valeur FIC est faible, plus la synergie est importante.
On considère qu'il y a simple additivité pour des valeurs de FIC comprises entre 0,75 et 1,1 et indifférente dans l'intervalle compris entre 1,1 et 2; au-delà, l'association est notée antagoniste.

Malassezia = test: Antifungal activity on Malassezia, general statements in the description; conditions: alone
[2] = test system: Malassézia furfur IP 1363-82; Malassezia furfur sauvage; test: Determination of the minimal fungistatic concentration (CMF), serial two-fold dilution in Dixon broth in microplates; conditions: product alone, 32°C, 48 to 72 h
Description: as §1
• une distribution de 100µl de bouillon Dixon est réalisée dans chaque cupule de la microplaque stérile. • une distribution de 100µl des différents produits a lieu dans une cupule, une cupule par produit (on est alors à 50% d'actif). • une série de dilutions sériées au demi est ensuite réalisée contre un témoin stérilité du milieu de culture et un autre témoin de la vigueur de la souche.
L'ensemencement de la microplaque a lieu sous atmosphère stérile après préparation de l'inoculum fongique comme suit : […]

Compound | CMF % Associés [1] | action sur les levures telles Malassezia (Malassezia) | CMF % Seuls [2] | FIC Index ([1]; sum of FIC for the association Rétinal + Ald. C11, synergy if <= 0,75)
CCCCCCCCCCC=O [Ald. C11, undécanal] | 0,0001 – 0,03% | – | – | –
CC1=C(/C=C/C(C)=C/C=C/C(C)=C/C=O)C(C)(C)CCC1 [Rétinal, Trans rétinal] | 0,06 – 0,25% | ne possède pas d'action notoire | 0,25 – 0,5% | 0,51 à 0,75
